Counter-ions that a name gives are not always drawn.
What was measured:
[1] = target: T1, ROCK2 (Homo sapiens, UniProt O75116); test: ROCK2 kinase binding affinity, DiscoverX KINOMEscan KdELECT; conditions: for ROCK 2 Selectivity: ROCK2 over ROCK1, from Kd values, N/C = not calculated; for Kd: equilibrium dissociation constant, 11-point 3-fold dilution series, read-out: Kd (μM) ROCK2
T1 construct: purchased DiscoverX (KINOMEscan KdELECT service); host or cells: E. coli BL21-derived (T7 phage) or HEK-293
T1 sequence (O75116 whole entry): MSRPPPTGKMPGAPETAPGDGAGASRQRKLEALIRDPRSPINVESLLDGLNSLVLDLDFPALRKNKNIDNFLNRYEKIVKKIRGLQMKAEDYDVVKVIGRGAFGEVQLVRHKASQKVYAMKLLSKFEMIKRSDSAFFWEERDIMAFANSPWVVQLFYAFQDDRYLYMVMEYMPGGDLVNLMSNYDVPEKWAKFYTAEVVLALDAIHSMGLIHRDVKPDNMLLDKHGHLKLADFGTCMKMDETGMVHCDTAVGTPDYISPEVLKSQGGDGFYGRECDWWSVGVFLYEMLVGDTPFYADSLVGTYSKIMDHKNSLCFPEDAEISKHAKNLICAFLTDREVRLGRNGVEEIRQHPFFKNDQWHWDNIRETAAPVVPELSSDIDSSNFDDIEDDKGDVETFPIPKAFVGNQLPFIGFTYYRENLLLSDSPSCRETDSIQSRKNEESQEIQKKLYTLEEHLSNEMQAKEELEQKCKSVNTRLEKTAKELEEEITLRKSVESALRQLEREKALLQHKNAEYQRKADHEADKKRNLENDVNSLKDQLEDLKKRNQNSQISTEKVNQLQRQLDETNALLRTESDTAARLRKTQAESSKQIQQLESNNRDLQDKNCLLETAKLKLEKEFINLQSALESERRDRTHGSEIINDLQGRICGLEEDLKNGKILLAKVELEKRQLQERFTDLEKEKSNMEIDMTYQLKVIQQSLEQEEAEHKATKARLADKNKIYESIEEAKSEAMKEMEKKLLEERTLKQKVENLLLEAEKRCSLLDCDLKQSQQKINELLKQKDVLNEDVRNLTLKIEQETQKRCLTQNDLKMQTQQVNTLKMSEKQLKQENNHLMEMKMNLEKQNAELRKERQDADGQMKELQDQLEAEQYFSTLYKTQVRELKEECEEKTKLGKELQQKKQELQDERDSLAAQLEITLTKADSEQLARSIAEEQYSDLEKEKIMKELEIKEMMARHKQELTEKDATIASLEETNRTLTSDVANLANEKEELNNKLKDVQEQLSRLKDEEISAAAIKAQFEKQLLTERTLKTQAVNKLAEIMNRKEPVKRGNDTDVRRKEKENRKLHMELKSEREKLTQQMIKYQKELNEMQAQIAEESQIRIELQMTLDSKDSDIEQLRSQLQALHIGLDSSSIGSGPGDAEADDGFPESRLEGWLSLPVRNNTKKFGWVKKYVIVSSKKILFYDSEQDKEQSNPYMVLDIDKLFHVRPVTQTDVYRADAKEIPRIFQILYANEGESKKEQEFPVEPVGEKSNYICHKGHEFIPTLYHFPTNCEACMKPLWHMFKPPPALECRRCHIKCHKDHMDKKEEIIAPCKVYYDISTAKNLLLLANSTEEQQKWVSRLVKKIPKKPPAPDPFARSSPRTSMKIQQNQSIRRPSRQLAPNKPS
Description: (§1) 1. ROCK1 and ROCK2 kinase assays: The ROCK1 and ROCK2 kinase binding affinities of compounds in this invention were determined by DiscoverX's KINOMEscan™ KdELECT technology (https://www.discoverx.com/kinomescan-elect-kinase-screening-and-profiling-services): Kinase-tagged T7 phage strains were prepared in an E. coli host derived from the BL21 strain. E. coli were grown to log-phase and infected with T7 phage and incubated with shaking at 32° C. until lysis. The lysates were centrifuged and filtered to remove cell debris. The remaining kinases were produced in HEK-293 cells and subsequently tagged with DNA for qPCR detection. Streptavidin-coated magnetic beads were treated with biotinylated small molecule ligands for 30 minutes at room temperature to generate affinity resins for kinase assays. The liganded beads were blocked with excess biotin and washed with blocking buffer (SeaBlock (Pierce), 1% BSA, 0.05% Tween 20, 1 mM DTT) to remove unbound ligand and to reduce nonspecific binding. […] Test compounds were prepared as 111X stocks in 100% DMSO. Kds were determined using an 11-point 3-fold compound dilution series with three DMSO control points. […] The compounds were then diluted directly into the assays such that the final concentration of DMSO was 0.9%. All reactions performed in polypropylene 384-well plate. Each was a final volume of 0.02 ml. […] The kinase concentration in the eluates was measured by qPCR.

[2] = target: T2, ROCK1 (Homo sapiens, UniProt Q13464); test: ROCK1 kinase binding affinity, DiscoverX KINOMEscan KdELECT; conditions: equilibrium dissociation constant, 11-point 3-fold dilution series
T2 construct: purchased DiscoverX (KINOMEscan KdELECT service); host or cells: E. coli BL21-derived (T7 phage) or HEK-293
T2 sequence (Q13464 whole entry): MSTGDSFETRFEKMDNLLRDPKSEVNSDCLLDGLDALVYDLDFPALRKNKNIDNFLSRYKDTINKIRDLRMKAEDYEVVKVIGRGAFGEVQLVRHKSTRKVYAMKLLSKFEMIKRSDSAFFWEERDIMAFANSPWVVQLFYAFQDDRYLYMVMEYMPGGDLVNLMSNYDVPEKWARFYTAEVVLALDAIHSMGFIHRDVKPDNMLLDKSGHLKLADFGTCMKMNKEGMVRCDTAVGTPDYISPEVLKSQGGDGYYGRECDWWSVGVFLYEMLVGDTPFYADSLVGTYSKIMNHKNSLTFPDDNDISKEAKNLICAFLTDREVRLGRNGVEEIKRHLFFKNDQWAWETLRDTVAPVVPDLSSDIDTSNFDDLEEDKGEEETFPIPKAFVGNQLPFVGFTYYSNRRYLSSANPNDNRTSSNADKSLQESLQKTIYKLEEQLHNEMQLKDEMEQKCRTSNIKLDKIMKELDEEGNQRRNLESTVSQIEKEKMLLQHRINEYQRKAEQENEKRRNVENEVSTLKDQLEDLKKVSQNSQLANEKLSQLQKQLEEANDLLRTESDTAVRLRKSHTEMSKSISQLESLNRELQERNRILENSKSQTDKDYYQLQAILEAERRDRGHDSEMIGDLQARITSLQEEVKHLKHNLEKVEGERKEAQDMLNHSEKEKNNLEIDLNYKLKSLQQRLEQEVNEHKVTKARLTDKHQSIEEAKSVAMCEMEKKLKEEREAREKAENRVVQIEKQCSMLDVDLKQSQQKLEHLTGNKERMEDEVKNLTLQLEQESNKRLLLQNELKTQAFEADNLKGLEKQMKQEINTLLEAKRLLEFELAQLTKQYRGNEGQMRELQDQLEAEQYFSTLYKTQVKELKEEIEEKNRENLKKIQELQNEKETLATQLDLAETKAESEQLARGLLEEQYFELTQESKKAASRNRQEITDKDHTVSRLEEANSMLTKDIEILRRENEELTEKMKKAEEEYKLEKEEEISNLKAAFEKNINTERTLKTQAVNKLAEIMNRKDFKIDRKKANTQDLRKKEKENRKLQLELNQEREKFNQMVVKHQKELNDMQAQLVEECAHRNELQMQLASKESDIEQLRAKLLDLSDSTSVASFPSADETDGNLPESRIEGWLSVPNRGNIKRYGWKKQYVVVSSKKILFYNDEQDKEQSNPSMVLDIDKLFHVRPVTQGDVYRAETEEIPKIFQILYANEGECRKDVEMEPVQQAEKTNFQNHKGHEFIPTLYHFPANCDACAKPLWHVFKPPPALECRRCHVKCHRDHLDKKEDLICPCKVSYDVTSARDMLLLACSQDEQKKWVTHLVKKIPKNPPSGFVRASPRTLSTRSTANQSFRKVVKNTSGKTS
Description: as §1

Compound	ROCK 2 Selectivity [1]	Kd [1]	Kd [2]
COc1ccc2c(c1)CN(c1nccc(-c3nccc(C#Cc4ccc5[nH]nc(F)c5c4)n3)n1)C2 [Ex. 5, 3-Fluoro-5-((2′-(5-methoxyisoindolin-2-yl)-[2,4′-bipyrimidin]-4-yl)ethynyl)-1H-indazole]	>1500	0.02 µM	> 30 µM
N#Cc1ccc(C2CN(c3nccc(-c4nccc(C#Cc5ccc6[nH]ncc6c5)n4)n3)C2)cc1 [Ex. 50, 4-(1-(4-((1H-Indazol-5-yl)ethynyl)-[2,4′-bipyrimidin]-2′-yl)azetidin-3-yl)benzonitrile trifluoroacetate]	45	0.12 µM	5.4 µM
Fc1ccc2c(c1)CN(c1nccc(-c3nccc(C#Cc4ccc5[nH]nc(F)c5c4)n3)n1)C2 [Ex. 31, 3-Fluoro-5-((2′-(5-fluoroisoindolin-2-yl)-[2,4′-bipyrimidin]-4-yl)ethynyl)-1H-indazole]	>411	0.073 µM	> 30 µM
COc1ccc2c(c1)CN(c1nccc(-c3nccc(C#Cc4ccc(C#N)cc4)n3)n1)C2 [Ex. 9, 4-((2′-(5-Methoxyisoindolin-2-yl)-[2,4′-bipyrimidin]-4-yl)ethynyl)benzonitrile]	–	> 30 µM	> 30 µM
Fc1cc(C#Cc2ccc3[nH]ncc3c2)cc(-c2ccnc(N3Cc4ccc(Cl)cc4C3)n2)c1 [Ex. 26, 5-((3-(2-(5-Chloroisoindolin-2-yl)pyrimidin-4-yl)-5-fluorophenyl)ethynyl)-1H-indazole]	>6.67	4.5 µM	> 30 µM
FC(F)(F)c1nnc2n1CCN(c1nccc(-c3nccc(C#Cc4ccc5[nH]ncc5c4)n3)n1)C2 [Ex. 60, 7-(4-((1H-Indazol-5-yl)ethynyl)-[2,4′-bipyrimidin]-2′-yl)-3-(trifluoromethyl)-5,6,7,8-tetrahydro-[1,2,4]triazolo[4,3-a]pyrazine]	47.1	0.21 µM	9.9 µM
Fc1ccc2c(c1)CN(c1nccc(-c3nccc(C#Cc4cc(F)c5[nH]ncc5c4)n3)n1)C2 [Ex. 14, 7-Fluoro-5-((2′-(5-fluoroisoindolin-2-yl)-[2,4′-bipyrimidin]-4-yl)ethynyl)-1H-indazole]	>1071	0.028 µM	> 30 µM
Cc1nnc2n1CCN(c1nccc(-c3nccc(C#Cc4ccc5[nH]ncc5c4)n3)n1)C2 [Ex. 64, 7-(4-((1H-Indazol-5-yl)ethynyl)-[2,4′-bipyrimidin]-2′-yl)-3-methyl-5,6,7,8-tetrahydro-[1,2,4]triazolo[4,3-a]pyrazine]	10.3	0.33 µM	3.4 µM
C(#Cc1ccnc(-c2ccnc(N3CCN(c4ccccc4)CC3)n2)n1)c1ccc2[nH]ncc2c1 [Ex. 52, 5-((2′-(4-Phenylpiperazin-1-yl)-[2,4′-bipyrimidin]-4-yl)ethynyl)-1H-indazole]	26.5	0.34 µM	9 µM
COc1ccc2c(c1)CN(c1nccc(-c3nccc(C#Cc4cnc5[nH]ncc5c4)n3)n1)C2 [Ex. 33, 5-((2′-(5-Methoxyisoindolin-2-yl)-[2,4′-bipyrimidin]-4-yl)ethynyl)-1H-pyrazolo[3,4-b]pyridine]	>44.1	0.68 µM	> 30 µM
COc1ccc2c(c1)CN(c1nccc(-c3nccc(C#Cc4ccncc4)n3)n1)C2 [Ex. 1, 5-Methoxy-2-(4-(pyridin-4-ylethynyl)-[2,4′-bipyrimidin]-2′-yl)isoindoline]	–	> 30 µM	> 30 µM
Fc1ccc(N2CCN(c3nccc(-c4nccc(C#Cc5ccc6[nH]ncc6c5)n4)n3)CC2)cc1 [Ex. 53, 5-((2′-(4-(4-Fluorophenyl)piperazin-1-yl)-[2,4′-bipyrimidin]-4-yl)ethynyl)-1H-indazole]	58.8	0.08 µM	4.7 µM

Source: patent publication US20220281841A1, “ETHYNYLHETEROCYCLES AS RHO-ASSOCIATED COILED-COIL KINASE (ROCK) INHIBITORS” (Angion Biomedica Corp., priority 2019, published 2022)
